Assay results taken from patent US6528455B1, “Phenoxy-and thiophenoxy acrylic acid compounds as herbicides” (BASF Aktiengesellschaft, priority 1999, dated 2003).

Tested on: dicotyledonous harmful plants (ABUTH, AMARE, IPOSS, SOLNI)
Assay: Greenhouse experiment, post-emergence treatment: herbicidal action
Assay type: in vivo
Conditions: application rates of 3.9 and 1.95 g/ha of a.s., 2 to 4 weeks
Source text: The test period extended over 2 to 4 weeks.

## 3-(4-Chloro-2-fluoro-5-(1-methoxycarbonyl-1-vinyloxy)phenyl)-1-methyl-6-trifluoromethyl-2,4-(1H, 3H)pyrimidinedione [Example 2]
  herbicidal effect on dicotyledonous harmful plants compared with Comparative Example A: at least as good a herbicidal effect
